Measurements as given in article PMC6222791, “(−)-Asarinin from the Roots of Asarum sieboldii Induces Apoptotic Cell Death via Caspase Activation in Human Ovarian Cancer Cells” (Molecules : A Journal of Synthetic Chemistry and Natural …, 2018).
Where two headings read alike, the source gives them in different places.

Tests used:
[1] = test system: SKOV3 cells; assay: PI/Annexin V-FITC double staining, SKOV3; type: cell-based, human; details: SKOV3, 48 h, increased by up to
Description: (§1) Annexin V- FITC was obtained from BD Biosciences (San Jose, CA, USA). The cells were treated with (−)-asarinin (1) and incubated for 48 h. The cells were rinsed twice with ice-cold PBS and suspended with 100 μL of binding buffer (10 mM HEPES/NaOH, 140 mM Nacl, 2.5 mM CaCl2, PH 7.4). A total of 5 μL of FITC-conjugated annexin V and 5 μL of PI ([…]) were added into the cell suspension, and the mixture was incubated in a dark place at room temperature for 15 min. The cells were analyzed using FACS cater-plus flow cytometry (guava easy cyte^TM); at least 10,000 cells per each group were counted.

[2] = test system: A2780 cells; assay: MTT cytotoxicity assay, A2780; type: cell-based; details: Homo sapiens, read-out: IC50 (cytotoxicity)
[3] = test system: A2780 cells; assay: Cell cycle analysis (PI staining, flow cytometry), A2780; type: cell-based, human; details: A2780, 48 h
Description: (§2) The cells were treated with (−)-asarinin (1) and incubated for 48 h. At the time of collection, the cells were harvested and washed twice with ice-cold phosphate buffered saline (PBS). The cells were fixed and permeabilized with 70% ice-cold ethanol at −20 °C for 4 h. The cells were washed once with PBS and resuspended in a staining solution containing propidium iodide (50 µg/mL) and RNase A (5 mg/mL). The cell suspensions were incubated for 30 min at room temperature in a dark place. After 30 min the suspensions were analyzed by fluorescence-activated cell sorting (FACS) cater-plus flow cytometry (guava easy cyte^TM, Merk Millipore, Darmstadt, Germany) using 5000 cells per group.

[4] = test system: SKOV3 cells; assay: MTT cytotoxicity assay, SKOV3; type: cell-based; details: Homo sapiens, read-out: IC50 (cytotoxicity)
[5] = test system: caspase-9; assay: Western blot caspase activation, SKOV3; type: cell-based, human; details: SKOV3, 48 h, procaspase level by Western blot
Description: (§3) The cells were treated with (−)-asarinin (1) and incubated for 48 h. The cells were rinsed twice with ice-cold PBS and lysed with protein lysis buffer (Intron Biotechnology, Seoul, Korea) containing protease inhibitors (0.5 mM PMSF and 5 μg/mL aprotinin). The lysates were mixed with 5X sodium dodecyl sulfate (SDS) sample buffer and boiled for 5 min for denaturation. Total protein was run on 10–12% SDS-PAGE gels and electrotransferred onto a polyvinylidene difluoride (PVDF) membrane. The membrane was immunoblotted using specific primary antibodies overnight at 4 °C following blocking with 5% non-fat dry milk for 30 min–1 h. After washing, the membrane was incubated with horseradish peroxidase-conjugated secondary antibody (1:1000–2000) at room temperature for 1−2 h. After washing, immunepositive bands were visualized using an ECL chemiluminescent system and analyzed by Image Quant LAS-4000 (Fujifilm Life science, Tokyo, Japan). Anti-caspase-3 and b-actin antibodies were obtained from Santa Cruz Biotechnology (Santa Cruz, CA, USA). Caspase-9 antibody was purchased from Cell Signaling (Beverly, MA, USA). Caspase-8 antibody was obtained from BD Biosciences (San Jose, CA, USA).

[6] = test system: caspase-3; assay: Western blot caspase activation, SKOV3; type: cell-based, human; details: SKOV3, 48 h, procaspase level by Western blot
Description: as §3

[7] = test system: caspase-8; assay: Western blot caspase activation, SKOV3; type: cell-based, human; details: SKOV3, 48 h, procaspase level by Western blot
Description: as §3

[8] = test system: IOSE80PC cells; assay: in vitro
Description: (§4) Human ovarian cancer cell lines (A2780 and SKOV3 cells) were obtained from the American Type Culture Collection (ATCC), and immortalized ovarian surface epithelial cell lines (IOSE80PC) were provided by Dr. N. Auersperg (University of British Columbia, Vancouver, British Columbia, Canada) and Dr. A. Godwin (Fox Chase Cancer Center, Philadelphia, PA, USA).
(§5) A MTT assay was performed to evaluate the cell viability. The MTT was obtained from Molecular Probes Inc. (Eugene, OR, USA). Briefly, the cells (1.0 × 10^5/well) were seeded in a 96-well plate and incubated for 24 h. […] MTT solution was added into each well (final concentration; 0.5 mg/mL) and the plates were incubated for an additional 4 h. The medium was removed and 50 μL of dimethyl sulfoxide (DMSO) was added. The optical density was measured at 540 nm using a microplate spectrophotometer (SpectraMax; Molecular Devices, Sunnyvale, CA, USA). To investigate the involvement of caspases in asarinin (1)-induced cell death, a MTT assay was also performed using caspase inhibitors. The cells were pretreated with caspase inhibitors (50 μM) for 30 min, and treated with (−)-asarinin (1) (A2780, 40 μM; and SKOV3, 60 μM) for 48 h. Caspase-3 inhibitor z-DEVD-fmk, caspase-8 inhibitor z-IETD-fmk, and caspase-9 inhibitor z-LEHD-fmk were purchased from Calbiochem (Bad Soden, Germany).

[9] = in vitro; details: human
Description: as §4, §5

[10] = test system: A2780 cells; assay: PI/Annexin V-FITC double staining, A2780; type: cell-based, human; details: A2780, 48 h, increased by up to
Description: as §1

[11] = test system: caspase-9; assay: Western blot caspase activation, A2780; type: cell-based, human; details: A2780, 48 h, procaspase level by Western blot
Description: as §3

[12] = test system: caspase-3; assay: Western blot caspase activation, A2780; type: cell-based, human; details: A2780, 48 h, procaspase level by Western blot
Description: as §3

[13] = test system: caspase-8; assay: Western blot caspase activation, A2780; type: cell-based, human; details: A2780, 48 h, procaspase level by Western blot
Description: as §3

[14] = test system: human leukemia HL-60 cells; design: method as in PMID 11507740; details: cited from earlier work
[15] = test system: EBV-EA activation; design: method as in PMID 9255419, doi:10.1016/S1572-5995(00)80047-2; details: Raji cells; cited from earlier work
[16] = test system: SKOV3 cells; assay: Cell cycle analysis (PI staining, flow cytometry), SKOV3; type: cell-based, human; details: SKOV3, 48 h
Description: as §2

[17] = test system: A2780 cells; assay: MTT assay with caspase inhibitors on (−)-asarinin (1)-induced cell death, A2780; type: cell-based, human; details: A2780, inhibitor 50 μM pretreated 30 min, then (−)-asarinin (1) 40 μM 48 h
[18] = test system: SKOV3 cells; assay: MTT assay with caspase inhibitors on (−)-asarinin (1)-induced cell death, SKOV3; type: cell-based, human; details: SKOV3, inhibitor 50 μM pretreated 30 min, then (−)-asarinin (1) 60 μM 48 h
[19] = IOSE80PC immortalized ovarian surface epithelial cells

With c1cc2c(cc1[C@H]1OC[C@H]3[C@@H]1CO[C@H]3c1ccc3c(c1)OCO3)OCO2 [Compound 1, (−)-asarinin] the “percentage of Annexin V-FITC positive/PI negative cells” value [1] was no more than 48%, the IC50 ([2]; A2780, 48 h) was 38.5 ± 2.78 µM and the cell cycle arrest [3] was “failed to induce cell cycle arrest”. The IC50 ([4]; SK-OV-3, 48 h) was 60.9 ± 5.01 µM, the “activation of caspase-9” value [5] was “markedly stimulated the activation” and the “activation of caspase-3” value [6] was “markedly stimulated the activation”. For the same compound, the “activation of caspase-8” value [7] was “markedly stimulated the activation”, the “cytotoxicity (in words)” value [8] was “did not show any cytotoxicity” and the IC50 at 48 h [9] was greater than 200 µM. The “percentage of Annexin V-FITC positive/PI negative cells” value [10] was “up to 43%”, the “activation of caspase-9” value [11] was “markedly stimulated the activation” and the “activation of caspase-3” value [12] was “markedly stimulated the activation”. The “activation of caspase-8” value [13] was “markedly stimulated the activation”, the DNA synthesis [14] was “inhibited DNA synthesis” and the “effect on EBV-EA activation” value [15] was “significant inhibitory effect”. For the same compound, the cell cycle arrest [16] was “failed to induce cell cycle arrest”.
With COc1cc([C@@H]2OC[C@@H]3[C@H]2CO[C@H]3c2ccc3c(c2)OCO3)ccc1O [Compound 2, (−)-pluviatilol] the IC50 ([2]; A2780, MTT, 48 h) was 102 ± 13.6 µM, the IC50 ([4]; SK-OV-3, SKOV3, MTT, 48 h) was 174 ± 9.42 µM and the IC50 at 48 h [9, 19] was 179 ± 3.3 µM.
Compound CCC(=O)c1cc2c(cc1O)OCO2 [Compound 3, kakuol] has an IC50 ([2]; A2780, 48 h) greater than 200 µM, an IC50 ([4]; SK-OV-3, 48 h) greater than 200 µM and an IC50 at 48 h [9] greater than 200 µM.
CCC(=O)c1cc2c(cc1OC)OCO2 [Compound 4, methylkakuol] gave an IC50 ([2]; A2780, 48 h) greater than 200 µM, an IC50 ([4]; SK-OV-3, 48 h) greater than 200 µM and an IC50 at 48 h [9] greater than 200 µM.
Work on C/C=C\CC/C=C/C=C/C(=O)NCC(C)C [Compound 7, (2E,4E,8Z)-N-isobutyldeca-2,4,8-trienamide] yielded an IC50 ([2]; A2780, MTT, 48 h) greater than 200 µM, an IC50 ([4]; SK-OV-3, SKOV3, MTT, 48 h) greater than 200 µM and an IC50 at 48 h [9, 19] greater than 200 µM.
For C/C=C/C=C\CC/C=C/C=C/C(=O)NCC(C)C [Compound 8, (2E,4E,8Z,10E/Z)-N-isobutyldodeca-2,4,8,10-tetraenamide], the IC50 ([2]; A2780, MTT, 48 h) was 101 ± 10.3 µM, the IC50 ([4]; SK-OV-3, SKOV3, MTT, 48 h) was greater than 200 µM and the IC50 at 48 h [9, 19] was greater than 200 µM.
In the case of z-DEVD-fmk, the “effect on (−)-asarinin (1)-induced cell death” value (from here on “effect on (−)-asarinin”) [17] is reported as “considerably attenuated” and the “effect on (−)-asarinin” value [18] is reported as “considerably attenuated”.
For z-IETD-fmk, the “effect on (−)-asarinin” value [17] was “considerably attenuated” and the “effect on (−)-asarinin” value [18] was “considerably attenuated”.
For z-LEHD-fmk, the “effect on (−)-asarinin” value [17] was “considerably attenuated” and the “effect on (−)-asarinin” value [18] was “considerably attenuated”.
